According to US20020133846A1, “Method for protecting plants” (priority 1996, published 2002):
Like-named read-outs stand apart in the source and are kept apart here.

Tests used:
[1] = tested on: Peronospora parasitica NoCo2; assay: whole plant or invertebrate; assay type: in vivo
[2] = tested on: Peronospora parasitica isolate Emwa; assay: Action against Peronospora parasitica in Arabidopsis overexpressing NIM1 (lines 6E, 7C) and wild-type Ws; assay type: in vivo
From the text: The plant lines used in this example (6E and 7C) were generated from transformation of wild-type Arabidopsis thaliana plants (ecotype Ws) with the BamHI-HindIII NIM1 genomic fragment (SEQ ID NO:1—bases 1249-5655), as described above in Example 21. The fungicides metalaxyl, fosetyl, and copper hydroxide, formulated as 25%, 80%, and 70% active ingredient (ai), respectively, with a wettable powder carrier, were applied as fine mist to leaves of three week-old transgenic Ws plants constitutively expressing the NIM1 gene. The wettable powder alone was applied as a control. Three days later, plants were inoculated with a Peronospora parasitica isolate Emwa conidial suspension (1-2×10^5 spores/ml), as described in Delaney et al. (1995). Following inoculation, plants were covered to maintain high humidity and were placed in a Percival growth chamber at 17° C. with a 14-hr day/10-hr night cycle (Uknes et al., 1993). Tissue was harvested 8 days after inoculation.
Fungal infection progression was followed for 12 days by viewing under a dissecting microscope to score development of conidiophores (Delaney, et al. (1994); Dietrich, et al. (1994)). Lactophenoltrypan blue staining of individual leaves was carried out to observe fungal growth within leaf tissue. Fungal growth was quantified using a rRNA fungal probe obtained by PCR according to White et al. (1990; PCR Protocols: A guide to Methods and Application, 315-322) using primers NS1 and NS2 and P. parasitica EmWa DNA as templates. RNA was purified from frozen tissue by phenol/chloroform extraction following lithium chloride precipitation (Lagrimini et al, 1987: PNAS, 84: 7542-7546). Samples (7.5 μg) were separated by electrophoresis through formaldehyde agarose gels and blotted to nylon membranes (Hybond-N+, Amersham) as described by Ausbel et al. (1987). Hybridizations and washing were according to Church and Gilbert (1984, PNAS, 81: 1991-1995). Relative amounts of the transcript were determined using a Phosphor Imager (Molecular Dynamics, Sunnyvale, Calif.) following manufacturers instructions. Sample loading was normalized by probing stripped filter blots with the constitutively expressed b-tubulin Arabidopsis cDNA.

[3] = Cu(OH)2 0.02 g/l, NIM1 overexpression line 6E
[4] = Cu(OH)2 0.02 g/l, NIM1 overexpression line 7C
[5] = Cu(OH)2 0.2 g/l, NIM1 overexpression line 6E
[6] = Cu(OH)2 0.2 g/l, NIM1 overexpression line 7C
[7] = Cu(OH)2 2.0 g/l, NIM1 overexpression line 6E
[8] = Cu(OH)2 2.0 g/l, NIM1 overexpression line 7C

Compound `COCC(=O)N(c1c(C)cccc1C)C(C)C(=O)OC` (racemic) [metalaxyl] has an inhibition at 0.02 µg/mL ([1]; Hyaloperonospora parasitica, in Arabidopsis thaliana, read-out: Fungal Growth Inhibition % O (observed), Table 33, cim3 mutant, metalaxyl 0.02 mg/l) of 55.6%, an inhibition at 0.1 µg/mL ([1]; Hyaloperonospora parasitica, in Arabidopsis thaliana, read-out: Fungal Growth Inhibition % O (observed), Table 33, cim3 mutant, metalaxyl 0.1 mg/l) of 57.8% and an inhibition at 2.5 µg/mL ([1]; Hyaloperonospora parasitica, in Arabidopsis thaliana, read-out: Fungal Growth Inhibition % O (observed), Table 33, cim3 mutant, metalaxyl 2.5 mg/l) of 82.2%. The “Synergy Factor O/E” value ([1]; Table 33, cim3 mutation + metalaxyl 0.1 mg/l) was 4.6, the “Synergy Factor O/E” value ([1]; Table 33, cim3 mutation + metalaxyl 2.5 mg/l) was 6.6 and the inhibition at 1.2 µg/mL ([2]; Hyaloperonospora parasitica, in Arabidopsis thaliana, Table 36, NIM1 overexpression line 6E, metalaxyl 0.0012 g/l, read-out: Fungal Growth Inhibition % O (observed)) was 56%. The inhibition at 12.5 µg/mL ([2]; Hyaloperonospora parasitica, in Arabidopsis thaliana, Table 36, NIM1 overexpression line 6E, metalaxyl 0.0125 g/l, read-out: Fungal Growth Inhibition % O (observed)) was 76%, the “Synergy Factor O/E” value ([2]; Table 36, NIM1 overexpression line 6E + metalaxyl 0.0012 g/l) was 1.5 and the “Synergy Factor O/E” value ([2]; Table 36, NIM1 overexpression line 6E + metalaxyl 0.0125 g/l) was 1.1.
With `CSC(=O)c1cccc2nnsc12` [BTH] the inhibition at 10 µM ([1]; Hyaloperonospora parasitica, in Arabidopsis thaliana, read-out: Fungal Growth Inhibition % O (observed), Table 34, cim3 mutant, BTH 0.01 mM) was 16.6%, the inhibition at 30 µM ([1]; Hyaloperonospora parasitica, in Arabidopsis thaliana, read-out: Fungal Growth Inhibition % O (observed), Table 34, cim3 mutant, BTH 0.03 mM) was 73.1% and the “Synergy Factor O/E” value ([1]; Table 34, cim3 mutation + BTH 0.01 mM) was 1.3. For the same compound, the “Synergy Factor O/E” value ([1]; Table 34, cim3 mutation + BTH 0.03 mM) was 2.2.
In the case of `[Cu+2].[OH-].[OH-]` [Cu(OH)2, copper hydroxide], the “Fungal Growth Inhibition % O (observed)” value [2, 3] is reported as 20%, the “Synergy Factor O/E” value [2, 3] is reported as 2.0 and the “Fungal Growth Inhibition % O (observed)” value [2, 4] is reported as 55%. For the same compound, the “Synergy Factor O/E” value [2, 4] was 3.9, the “Fungal Growth Inhibition % O (observed)” value [2, 5] was 14% and the “Synergy Factor O/E” value [2, 5] was 1.4. The “Fungal Growth Inhibition % O (observed)” value [2, 6] was 51%, the “Synergy Factor O/E” value [2, 6] was 3.6 and the “Fungal Growth Inhibition % O (observed)” value [2, 7] was 66%. The “Synergy Factor O/E” value [2, 7] was 6.6, the “Fungal Growth Inhibition % O (observed)” value [2, 8] was 77% and the “Synergy Factor O/E” value [2, 8] was 5.5. For the same compound, the synergy factor ([2]; NIM1 overexpression line 7C + copper hydroxide 2.0 g/l) was 5.5 and the “fungal growth inhibition (observed)” value ([2]; NIM1 overexpression line 7C, copper hydroxide 2.0 g/l) was 77%.
Work on `CCO[PH](=O)O` [fosetyl, ethyl hydrogen phosphonate] yielded an inhibition at 50 µg/mL ([2]; Hyaloperonospora parasitica, in Arabidopsis thaliana, Table 37, NIM1 overexpression line 6E, fosetyl 0.05 g/l, read-out: Fungal Growth Inhibition % O (observed)) of 42%, an inhibition at 500 µg/mL ([2]; Hyaloperonospora parasitica, in Arabidopsis thaliana, Table 37, NIM1 overexpression line 6E, fosetyl 0.5 g/l, read-out: Fungal Growth Inhibition % O (observed)) of 83% and an inhibition at 500 µg/mL ([2]; Hyaloperonospora parasitica, in Arabidopsis thaliana, fosetyl 0.5 g/l, NIM1 overexpression line 7C, read-out: Fungal Growth Inhibition % O (observed)) of 56%. The inhibition at 5000 µg/mL ([2]; Hyaloperonospora parasitica, in Arabidopsis thaliana, read-out: Fungal Growth Inhibition % O (observed), Table 37, NIM1 overexpression line 6E, fosetyl 5.0 g/l) was 93%, the inhibition at 5000 µg/mL ([2]; Hyaloperonospora parasitica, in Arabidopsis thaliana, read-out: Fungal Growth Inhibition % O (observed), fosetyl 5.0 g/l, NIM1 overexpression line 7C) was 80% and the “Synergy Factor O/E” value ([2]; Table 37, NIM1 overexpression line 6E + fosetyl 0.05 g/l) was 4.2. The “Synergy Factor O/E” value ([2]; Table 37, NIM1 overexpression line 6E + fosetyl 0.5 g/l) was 6.9, the “Synergy Factor O/E” value ([2]; Table 37, NIM1 overexpression line 6E + fosetyl 5.0 g/l) was 5.5 and the “Synergy Factor O/E” value ([2]; fosetyl 0.5 g/l, NIM1 overexpression line 7C) was 3.5. The “Synergy Factor O/E” value ([2]; fosetyl 5.0 g/l, NIM1 overexpression line 7C) was 3.8.
